Measured values: patent publication US6133039A, “In vivo method for determination of oxidative stress” (Washinton University, priority 2000, dated 2000)

Columns and labels:
[1] = Metabolic fate of radiolabeled dityrosine injected intravenously into mice (blood, tissue and urine radioactivity); type: in vivo
Description: Mice were injected with 2×10^5 cpm of [^14 C]dityrosine. FIG. 3A: Blood was collected at the indicated times by retro-orbital bleeding. FIG. 3B: Animals were sacrificed at the indicated times after injection of [^14 C]dityrosine. Recovery of radiolabeled material in tissues and urine was quantified by scintillation spectroscopy.
(§1) o,o'-[^14 C]Dityrosine (2×10^5 cpm) was injected into the animals intravenously. Plasma was centrifuged (400×g for 20 min at 4° C.) from blood collected by retro-orbital bleeding. Tissue samples were collected from animals killed by cervical dislocation, weighed and then homogenized in deionized water. Radioactivity in tissue homogenates, plasma, and urine was determined by liquid scintillation spectroscopy (Beckman LS 3801) with correction for quenching. [^14 C]Dityrosine was prepared from L-[^14 C]tyrosine (American Radiolabeled Chemicals Co.; St. Louis, Mo.) and o,o'-[^13 C12 ]dityrosine was prepared from L-[^13 C6 ]tyrosine (Cambridge Isotope Inc.; Andover, Mass.) using horseradish peroxidase (Boehringer Mannheim Biochemicals; Indianapolis, Ind.) and H2 O2 (Fisher Scientific Co.; Pittsburgh, Pa.) and isolated by reverse-phase HPLC; (27). o,o'-[^14 C]Dityrosine and radiolabeled material in urine were analyzed by HPLC (27) using a reverse-phase column (ODS ultrasphere, 250 mm×4.6 mm, particle size 5 μm.; Beckman,) and a flow rate of 1 ml/min. The column was equilibrated with 100% solvent A (1% acetic acid in water). Compounds were eluted with a discontinuous gradient of solvent B (1% acetic acid in methanol). The gradient was 0%-10% solvent B over 10 min, 10% solvent B for 4 min, 10%-100% solvent B over 5 min and 100% solvent B for 10 min. Prior to HPLC analysis, urinary amino acids were isolated by solid-phase extraction as outlined above. Recovery of radiolabeled material from urine subjected to this procedure was>90%. Radioactivity in each HPLC fraction was quantified by liquid scintillation spectroscopy.

[2] = system: peritoneal phagocytes of wild-type mice; test: Protein-bound o,o'-dityrosine in peritoneal leukocytes activated in vivo with zymosan, isotope dilution GC/MS; design: species or system mice (C57BL/6J)
Description: (§2) Thioglycolate-elicited peritoneal inflammatory cells were activated in vivo with zymosan. FIG. 2A: At the indicated time (n=3 animals) or FIG. 2B: 3 h after injection of zymosan, protein-bound o,o'-dityrosine in cellular proteins was quantified by isotope dilution GC/MS.
(§3) The animal studies committee of Washington University School of Medicine in St. Louis approved all protocols. The C57BL/6J mice used for these experiments were obtained from Jackson Laboratories (Bar Harbor, […].) and bred and maintained under pathogen-free conditions. Impaired O2^.cndot.- by phorbol ester-stimulated neutrophils isolated from CGD mice deficient in gp91 phox (13) was confirmed by monitoring the superoxide dimutase inhibitable reduction of ferricytochrome c (10). Mice were fed rodent diet 5001 (Harlan-Teklad, Madison, Wis.). Between ages 9 and 11 weeks, the mice were injected with one ml of 4% thioglycollate to recruit leukocytes into the peritoneum. The leukocytes were activated 20 hours (h) later by intraperitoneal injection of zymosan (250 mg/kg). Control animals were injected with one ml of buffer A (138 mM NaCl, 3 mM KCl, 0.1 M sodium phosphate, pH 7.4). Prior to and every 2 h during urine collection, the animals were injected intraperitoneally with 2 ml of buffer A.
Animals were killed by decapitation after metophane-induced anesthesia. After the abdominal wall was washed with 95% ethanol, leukocytes were harvested from the peritoneum using a siliconized glass pipette. The peritoneum was lavaged 3 times with 4 ml of ice-cold Hanks' Balanced Salt Solution (HBSS) containing 100 μM DTPA. Cells were suspended in ice-cold HBSS, collected by low speed centrifugation, and stored at -80° C. until analysis. […]
(§4) Amino acids were converted to their n-propyl esters, heptafluorobutyryl derivatives and quantified by isotope dilution gas chromatography/mass spectrometry (GC/MS) with selected ion monitoring (20,21). […] The ions monitored were: L-tyrosine, m/z 417 and 595; L-[^13 C6 ]tyrosine, m/z 423 and 601; o,o'-dityrosine, m/z 1030 and 1208; o,o'-[^13 C12 ]dityrosine, m/z 1042 and 1220.

[3] = Reverse-phase HPLC analysis of urine of animals injected intravenously with o,o'-[^14 C]dityrosine; type: in vivo, mice; settings: urine after intravenous injection
Description: Urine collected from animals injected with [^14 C]dityrosine was subjected to reverse-phase HPLC analysis with monitoring of radioactivity by scintillation spectroscopy.
as §1, with “Compounds were eluted with a discontinuous gradient of solvent B (1% acetic acid in methanol). The gradient was 0%-10% solvent B over 10 min, 10% solvent B for 4 min, 10%-100% solvent B over 5 min and 100% solvent B for 10 min. Prior to HPLC analysis, urinary amino acids were isolated by solid-phase extraction as outlined above. Recovery of radiolabeled material from urine subjected to this procedure was>90%.” left out

peritoneal phagocytes = test: Recruitment of peritoneal cells by thioglycollate; type: in vivo, mice
Text: as §3
Animals were killed by decapitation after metophane-induced anesthesia. After the abdominal wall was washed with 95% ethanol, leukocytes were harvested from the peritoneum using a siliconized glass pipette. The peritoneum was lavaged 3 times with 4 ml of ice-cold Hanks' Balanced Salt Solution (HBSS) containing 100 μM DTPA. Cells were suspended in ice-cold HBSS, collected by low speed centrifugation, and stored at -80° C. until analysis.
To determine whether white blood cells oxidatively damage proteins in vivo, isotope dilution GC/MS was used to quantify levels of o,o'-dityrosine in mouse peritoneal phagocytes. To recruit neutrophils into the peritoneum, the animals were injected with thioglycollate, a chemical irritant. Twenty hours after this first injection, the animals were given an intraperitoneal injection of zymosan, which stimulates phagocytes to produce H2 O2 and secrete myeloperoxidase into the phagolysosome (6). Thioglycollate-injected mice typically yielded 20-40×10^6 peritoneal cells. Neutrophils, mononuclear cells, and eosinophils represented 67±4%, 30±4%, and<1% of the harvested phagocytes (n=6 animals).

[4] = system: peritoneal phagocytes of CGD mice; test: Protein-bound o,o'-dityrosine in peritoneal phagocytes, isotope dilution GC/MS, CGD mice; type: in vivo; settings: 3 hours of zymosan stimulation, mice deficient in NADPH oxidase
Description: as §2
as §3, with “The leukocytes were activated 20 hours (h) later by intraperitoneal injection of zymosan (250 mg/kg). Control animals were injected with one ml of buffer A (138 mM NaCl, 3 mM KCl, 0.1 M sodium phosphate, pH 7.4). Prior to and every 2 h during urine collection, the animals were injected intraperitoneally with 2 ml of buffer A.” left out
as §4

[5] = 3-nitrotyrosine given to animals; Tabrizi-Fard et al.; cited from earlier work

Compound: NC(Cc1ccc(O)c(-c2cc(CC(N)C(=O)O)ccc2O)c1)C(=O)O (centres unmarked) [o,o'-dityrosine]
- recovery of radioactive material in the urine (in words) ([1]; between 3 h and 4 h after intravenous injection): recovered almost quantitatively
- o,o'-dityrosine content of resident thioglycollate-elicited neutrophils ([2]; before zymosan): ~ 50 μmol per mol tyrosine

Compound: N[C@@H](Cc1ccc(O)c(-c2cc(C[C@H](N)C(=O)O)ccc2O)c1)C(=O)O [o,o'-[^14 C]dityrosine]
- radiolabeled material lost from the blood ([1]; 5 min after intravenous injection): more than 50%
- radioactivity recovered in the urine ([1]; 1 h after intravenous injection): Thirty
- radioactivity recovered in the urine ([1]; 3 h after intravenous injection): 65%
- radioactivity recovered in the urine ([1]; 4 h after intravenous injection): 81%
- radiolabeled material in blood, liver, spleen, and heart ([1]; after intravenous injection): essentially undetectable
- radiolabeled material present in kidney ([1]; after intravenous injection): < 5%
- apparent half-life in the blood (slower phase) ([1]; intravenous): ~ 30 min
- clearance kinetics from the blood ([1]; intravenous): biphasic kinetics
- radioactivity in urine co-migrating with authentic o,o'-[^14 C]dityrosine [3]: More than 80%

Compound: thioglycollate
- eosinophils among harvested phagocytes (peritoneal phagocytes; n=6 animals): < 1%
- mononuclear cells among harvested phagocytes (peritoneal phagocytes; n=6 animals): 30±4%
- neutrophils among harvested phagocytes (peritoneal phagocytes; n=6 animals): 67±4%
- peritoneal cells yielded (peritoneal phagocytes; thioglycollate-injected mice): 20-40 ×10^6 peritoneal cells

Compound: zymosan
- o,o'-dityrosine in phagocyte proteins [4]: undetectable
- increase in protein-bound dityrosine ([4]; p<0.0005): completely abrogated
- time of peak of protein-bound o,o'-dityrosine ([2]; after zymosan injection): 3 h
- increase of o,o'-dityrosine in cellular proteins ([2]; neutrophils exposed to zymosan in vivo): 4 fold

Compound: N[C@@H](Cc1ccc(O)c([N+](=O)[O-])c1)C(=O)O [3-nitrotyrosine]
- amount excreted into urine [5]: Minimal amounts
